Laboratory results taken from the NIST ThermoML archive (doi:10.1021/acs.jced.9b00536).
± gives the expanded uncertainty stated by the source.

Test: wn = mass fraction of the nth substance listed
Conditions: 100 kPa, Liquid, Vibrating tube method

[Na+].[OH-] [sodium hydroxide] + O
mass density (333.15 K, w1 = 0.2): 1196.1 ± 2 kg/m3
mass density (333.15 K, w1 = 0.21): 1206.8 ± 2 kg/m3
mass density (333.15 K, w1 = 0.22): 1218.1 ± 2 kg/m3
mass density (333.15 K, w1 = 0.23): 1227.9 ± 2 kg/m3
mass density (333.15 K, w1 = 0.24): 1238.3 ± 2 kg/m3
mass density (333.15 K, w1 = 0.25): 1249.5 ± 2 kg/m3
mass density (333.15 K, w1 = 0.26): 1260.8 ± 2 kg/m3
mass density (333.15 K, w1 = 0.27): 1270.3 ± 2.1 kg/m3
mass density (333.15 K, w1 = 0.28): 1281 ± 2.1 kg/m3
mass density (333.15 K, w1 = 0.29): 1292 ± 2.1 kg/m3
mass density (333.15 K, w1 = 0.3): 1302.4 ± 2.1 kg/m3
mass density (333.15 K, w1 = 0.31): 1311.4 ± 2.1 kg/m3
mass density (333.15 K, w1 = 0.32): 1323.8 ± 2.1 kg/m3
mass density (333.15 K, w1 = 0.33): 1333.7 ± 2.1 kg/m3
mass density (333.15 K, w1 = 0.34): 1344.4 ± 2.1 kg/m3
mass density (333.15 K, w1 = 0.35): 1352.5 ± 2.1 kg/m3
mass density (333.15 K, w1 = 0.36): 1362.9 ± 2.1 kg/m3
mass density (333.15 K, w1 = 0.37): 1373.2 ± 2.1 kg/m3
mass density (333.15 K, w1 = 0.38): 1382.8 ± 2.1 kg/m3
mass density (333.15 K, w1 = 0.39): 1393 ± 2.1 kg/m3
mass density (333.15 K, w1 = 0.4): 1402.4 ± 2.1 kg/m3
mass density (333.15 K, w1 = 0.41): 1412 ± 2.1 kg/m3
mass density (333.15 K, w1 = 0.42): 1422.2 ± 2.1 kg/m3
mass density (333.15 K, w1 = 0.43): 1431.8 ± 2.1 kg/m3
mass density (333.15 K, w1 = 0.44): 1439.7 ± 2.2 kg/m3
mass density (333.15 K, w1 = 0.45): 1449.5 ± 2.2 kg/m3
mass density (333.15 K, w1 = 0.46): 1459 ± 2.2 kg/m3
mass density (333.15 K, w1 = 0.47): 1468.3 ± 2.2 kg/m3
mass density (333.15 K, w1 = 0.48): 1478.3 ± 2.2 kg/m3
mass density (333.15 K, w1 = 0.49): 1487.9 ± 2.2 kg/m3
mass density (333.15 K, w1 = 0.5): 1496.9 ± 2.2 kg/m3
mass density (343.15 K, w1 = 0.2): 1190 ± 2 kg/m3
mass density (343.15 K, w1 = 0.21): 1200.5 ± 2 kg/m3
mass density (343.15 K, w1 = 0.22): 1212 ± 2 kg/m3
mass density (343.15 K, w1 = 0.23): 1221.8 ± 2 kg/m3
mass density (343.15 K, w1 = 0.24): 1232.2 ± 2 kg/m3
mass density (343.15 K, w1 = 0.25): 1243 ± 2 kg/m3
mass density (343.15 K, w1 = 0.26): 1254.6 ± 2 kg/m3
mass density (343.15 K, w1 = 0.27): 1264.1 ± 2.1 kg/m3
mass density (343.15 K, w1 = 0.28): 1274.7 ± 2.1 kg/m3
mass density (343.15 K, w1 = 0.29): 1285.5 ± 2.1 kg/m3
mass density (343.15 K, w1 = 0.3): 1295.9 ± 2.1 kg/m3
mass density (343.15 K, w1 = 0.31): 1304.9 ± 2.1 kg/m3
mass density (343.15 K, w1 = 0.32): 1317.2 ± 2.1 kg/m3
mass density (343.15 K, w1 = 0.33): 1327.1 ± 2.1 kg/m3
mass density (343.15 K, w1 = 0.34): 1337.8 ± 2.1 kg/m3
mass density (343.15 K, w1 = 0.35): 1345.9 ± 2.1 kg/m3
mass density (343.15 K, w1 = 0.36): 1356.8 ± 2.1 kg/m3
mass density (343.15 K, w1 = 0.37): 1366.5 ± 2.1 kg/m3
mass density (343.15 K, w1 = 0.38): 1376.1 ± 2.1 kg/m3
mass density (343.15 K, w1 = 0.39): 1386 ± 2.1 kg/m3
mass density (343.15 K, w1 = 0.4): 1395.6 ± 2.1 kg/m3
mass density (343.15 K, w1 = 0.41): 1405.1 ± 2.1 kg/m3
mass density (343.15 K, w1 = 0.42): 1415.4 ± 2.1 kg/m3
mass density (343.15 K, w1 = 0.43): 1425 ± 2.1 kg/m3
mass density (343.15 K, w1 = 0.44): 1432.8 ± 2.1 kg/m3
mass density (343.15 K, w1 = 0.45): 1442.6 ± 2.2 kg/m3
mass density (343.15 K, w1 = 0.46): 1451.5 ± 2.2 kg/m3
mass density (343.15 K, w1 = 0.47): 1461.4 ± 2.2 kg/m3
mass density (343.15 K, w1 = 0.48): 1471.4 ± 2.2 kg/m3
mass density (343.15 K, w1 = 0.49): 1481 ± 2.2 kg/m3
mass density (343.15 K, w1 = 0.5): 1490 ± 2.2 kg/m3
mass density (353.15 K, w1 = 0.2): 1184.4 ± 2 kg/m3
mass density (353.15 K, w1 = 0.21): 1194 ± 2 kg/m3
mass density (353.15 K, w1 = 0.22): 1206.4 ± 2 kg/m3
mass density (353.15 K, w1 = 0.23): 1216.2 ± 2 kg/m3
mass density (353.15 K, w1 = 0.24): 1226.7 ± 2 kg/m3
mass density (353.15 K, w1 = 0.25): 1236.5 ± 2 kg/m3
mass density (353.15 K, w1 = 0.26): 1249 ± 2 kg/m3
mass density (353.15 K, w1 = 0.27): 1258.3 ± 2.1 kg/m3
mass density (353.15 K, w1 = 0.28): 1269.1 ± 2.1 kg/m3
mass density (353.15 K, w1 = 0.29): 1278.5 ± 2.1 kg/m3
mass density (353.15 K, w1 = 0.3): 1289.9 ± 2.1 kg/m3
mass density (353.15 K, w1 = 0.31): 1298.7 ± 2.1 kg/m3
mass density (353.15 K, w1 = 0.32): 1311.1 ± 2.1 kg/m3
mass density (353.15 K, w1 = 0.33): 1321 ± 2.1 kg/m3
mass density (353.15 K, w1 = 0.34): 1331.6 ± 2.1 kg/m3
mass density (353.15 K, w1 = 0.35): 1339.8 ± 2.1 kg/m3
mass density (353.15 K, w1 = 0.36): 1349.8 ± 2.1 kg/m3
mass density (353.15 K, w1 = 0.37): 1360.2 ± 2.1 kg/m3
mass density (353.15 K, w1 = 0.38): 1369.9 ± 2.1 kg/m3
mass density (353.15 K, w1 = 0.39): 1379.5 ± 2.1 kg/m3
mass density (353.15 K, w1 = 0.4): 1389.6 ± 2.1 kg/m3
mass density (353.15 K, w1 = 0.41): 1398.7 ± 2.1 kg/m3
mass density (353.15 K, w1 = 0.42): 1409 ± 2.1 kg/m3
mass density (353.15 K, w1 = 0.43): 1418.6 ± 2.1 kg/m3
mass density (353.15 K, w1 = 0.44): 1426.3 ± 2.1 kg/m3
mass density (353.15 K, w1 = 0.45): 1436.2 ± 2.2 kg/m3
mass density (353.15 K, w1 = 0.46): 1445.2 ± 2.2 kg/m3
mass density (353.15 K, w1 = 0.47): 1454.8 ± 2.2 kg/m3
mass density (353.15 K, w1 = 0.48): 1465 ± 2.2 kg/m3
mass density (353.15 K, w1 = 0.49): 1474.6 ± 2.2 kg/m3
mass density (353.15 K, w1 = 0.5): 1483.6 ± 2.2 kg/m3
